Source: patent publication US20140128339A1, “2'-METHYL SUBSTITUTED NUCLEOSIDE DERIVATIVES AND METHODS OF USE THEREOF FOR THE TREATMENT OF VIRAL DISEASES” (priority 2012, published 2014)

Tests used:
replicon cells (1b-Con1) = test: microbe, parasite or virus in culture; type: cell-based, HCV; settings: Hepatitis C virus, 72 h; 1b-Con1 replicon cells, three days post-dosing, Taqman RT-PCR with GAPDH RNA as control
replicon cells = settings: CC50, MTS assay three days post dosing in replicon cells
[1] = biological target: T1, HCV NS5B RNA-dependent RNA polymerase (1b-BKΔ55) (Hepatitis C virus genotype 1b, UniProt P26663); test: Inhibition of HCV NS5B polymerase by nucleoside triphosphate analogs (radiolabeled nucleotide incorporation assay); type: biochemical
T1 construct: 5 nM NS5B (1b-BKΔ55) enzyme
T1 sequence (P26663 2420-2955, stated change not applied): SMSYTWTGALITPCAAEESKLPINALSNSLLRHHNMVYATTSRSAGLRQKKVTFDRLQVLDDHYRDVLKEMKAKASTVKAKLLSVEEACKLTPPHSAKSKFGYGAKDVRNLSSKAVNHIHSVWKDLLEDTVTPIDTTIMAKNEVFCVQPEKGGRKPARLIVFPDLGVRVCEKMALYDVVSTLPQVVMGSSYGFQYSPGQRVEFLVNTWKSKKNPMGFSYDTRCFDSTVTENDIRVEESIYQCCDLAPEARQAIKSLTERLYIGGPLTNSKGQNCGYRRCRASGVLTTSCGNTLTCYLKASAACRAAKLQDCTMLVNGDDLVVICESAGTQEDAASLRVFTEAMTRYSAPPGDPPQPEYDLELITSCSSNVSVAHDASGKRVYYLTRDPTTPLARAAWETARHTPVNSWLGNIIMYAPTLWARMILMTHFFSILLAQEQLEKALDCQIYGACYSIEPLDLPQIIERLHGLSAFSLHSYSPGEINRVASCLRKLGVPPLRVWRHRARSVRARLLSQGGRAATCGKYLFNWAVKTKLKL
Procedure: To measure inhibition of the enzymatic activity of the HCV NS5B RNA-dependent RNA polymerase by the nucleoside triphosphate compounds of the present invention, a radiolabeled nucleotide incorporation assay was used. This assay is a modified version of the assay described in International Publication No. WO2002/057287. Briefly, 50 μL reactions containing 20 mM HEPES (pH 7.3); 7.5 mM DTT; 20 units/ml RNasIN; 1 μM each of ATP, GTP, UTP and CTP; 20 μCi/mL [^33P]-CTP; 10 mM MgCl; 60 mM NaCl; 100 μg/ml BSA; […] heteropolymer RNA template; and 5 nM NS5B (1b-BKΔ55) enzyme are incubated at room temperature for 1 hour. The assay is then terminated by the addition of 500 mM EDTA (50 μl). The reaction mixture is transferred to a Millipore DE81 filter plate and the incorporation of labeled CTP is determined using Packard TopCount. Compound IC50 values can then be calculated from experiments with 10 serial 3-fold dilutions of the inhibitor in duplicate.
Data was obtained using this method for the NTP analogs of selected compounds below of the present invention, and is set forth below. […] Data is also presented for comparative compounds, labeled as Compound B and Compound C.

SMILES | EC50 (replicon cells (1b-Con1)) [µM] | Cytotoxicity (replicon cells) [µM] | Ki [1] [µM]
CC(C)OC(=O)O[C@@H]1[C@@H](COP(=O)(N[C@@H](C)C(=O)OC(C)C)Oc2ccccc2)O[C@@H](n2ccc(=O)[nH]c2=O)[C@]1(C)C#N (some centres unmarked) [Compound 26] | 1 | >100 | –
CCCCC(=O)O[C@@H]1[C@@H](COP(=O)(N[C@@H](C)C(=O)OC(C)C)Oc2ccccc2)O[C@@H](n2ccc(=O)[nH]c2=O)[C@]1(C)C#N (some centres unmarked) [Compound 28] | 0.7 | 76 | –
CC(C)NC(=O)O[C@@H]1[C@@H](COP(=O)(N[C@@H](C)C(=O)OC(C)C)Oc2ccccc2)O[C@@H](n2ccc(=O)[nH]c2=O)[C@]1(C)C#N (some centres unmarked) [Compound 27] | > 100 | >100 | –
CC(C)OC(=O)[C@H](C)NP(=O)(OC[C@H]1O[C@@H](n2ccc(N)nc2=O)[C@](C)(N=[N+]=[N-])[C@@H]1OC(=O)C(C)C)Oc1ccccc1 (some centres unmarked) [Compound 15] | 0.6 | >100 | –
CCCCCCCCCCCCCCCCCC(=O)O[C@@H]1[C@@H](CO[P@](=O)(N[C@@H](C)C(=O)OC(C)C)Oc2ccccc2)OC(n2ccc(N)nc2=O)[C@]1(C)C#N (some centres unmarked) [Compound 8] | 5.09 | 6.54 | –
CCCCCCCCCCCCCCCCCC(=O)Nc1ccn(C2O[C@H](CO[P@](=O)(N[C@@H](C)C(=O)OC(C)C)Oc3ccccc3)[C@@H](O)[C@@]2(C)C#N)c(=O)n1 (some centres unmarked) [Compound 11] | 1.8 | 25 | –
C[C@@]1(N)[C@H](O)[C@@H](COP(=O)(O)OP(=O)(O)OP(=O)(O)O)O[C@H]1n1ccc(=O)[nH]c1=O [Compound 35] | – | – | 4.7
CCCC(CCC)C(=O)O[C@@H]1[C@@H](COP(=O)(N[C@@H](C)C(=O)OC(C)C)Oc2ccccc2)O[C@@H](n2ccc(=O)[nH]c2=O)[C@]1(C)C#N (some centres unmarked) [Compound 29] | 0.19 | 20 | –
C#C[C@]1(C)[C@H](O)[C@@H](COP(=O)(O)OP(=O)(O)OP(=O)(O)O)O[C@H]1n1ccc(=O)[nH]c1=O [Compound 36] | – | – | 11
CC(C)OC(=O)[C@H](C)NP(=O)(OC[C@H]1O[C@@H](n2ccc(=O)[nH]c2=O)[C@](C)(C#N)[C@@H]1OC(=O)C(C)C)Oc1ccccc1 (some centres unmarked) [Compound 23] | 0.7 | >100 | –
CCCC(CCC)C(=O)O[C@@H]1[C@@H](COP(=O)(N[C@@H](C)C(=O)OC(C)C)Oc2ccccc2)O[C@@H](n2ccc(N)nc2=O)[C@]1(C)N=[N+]=[N-] (some centres unmarked) [Compound 16] | 0.1 | 13 | –
C[C@@]1(N)[C@H](O)[C@@H](COP(=O)(O)OP(=O)(O)OP(=O)(O)O)O[C@H]1n1ccc(N)nc1=O [Compound 34] | – | – | 0.05
CCCCCCCCCCCCCCCCCC(=O)Nc1ccn(C2O[C@H](CO[P@](=O)(N[C@@H](C)C(=O)OC(C)C)Oc3ccccc3)[C@@H](OC(=O)CCCCCCCCCCCCCCCCC)[C@@]2(C)C#N)c(=O)n1 (some centres unmarked) [Compound 13] | > 100 | >100 | –
CC(C)OC(=O)[C@H](C)NP(=O)(OC[C@H]1O[C@@H](n2ccc(NC(=O)C(C)C)nc2=O)[C@](C)(N=[N+]=[N-])[C@@H]1O)Oc1ccccc1 (some centres unmarked) [Compound 19] | 8.5 | >100 | –
CC(C)OC(=O)[C@H](C)N[P@@](=O)(OC[C@H]1OC(n2ccc(N)nc2=O)[C@](C)(C#N)[C@@H]1OC(=O)C(C)C)Oc1ccccc1 (some centres unmarked) [Compound 7] | 0.425 | >100 | –
CC(C)OC(=O)[C@H](C)NP(=O)(OC[C@H]1O[C@@H](n2ccc(=O)[nH]c2=O)[C@](C)(C#N)[C@@H]1OC(=O)C1CCC1)Oc1ccccc1 (some centres unmarked) [Compound 25] | 0.7 | >100 | –
CCCCCCCCCCCCCCCCCC(=O)Nc1ccn([C@@H]2O[C@H](COP(=O)(N[C@@H](C)C(=O)OC(C)C)Oc3ccccc3)[C@@H](O)[C@@]2(C)N=[N+]=[N-])c(=O)n1 (some centres unmarked) [Compound 20] | 3.6 | >100 | –
CC(C)OC(=O)[C@H](C)NP(=O)(OC[C@H]1O[C@@H](n2ccc(NC(=O)C(C)C)nc2=O)[C@](C)(N=[N+]=[N-])[C@@H]1OC(=O)C(C)C)Oc1ccccc1 (some centres unmarked) [Compound 18] | 15 | >100 | –
CCCCCCCCCCCCCCCCCC(=O)O[C@@H]1[C@@H](COP(=O)(N[C@@H](C)C(=O)OC(C)C)Oc2ccccc2)O[C@@H](n2ccc(N)nc2=O)[C@]1(C)N=[N+]=[N-] (some centres unmarked) [Compound 17] | 8.2 | 9.9 | –
CC(C)OC(=O)[C@H](C)NP(=O)(OC[C@H]1O[C@@H](n2ccc(=O)[nH]c2=O)[C@](C)(C#N)[C@@H]1OC(=O)C1CC1)Oc1ccccc1 (some centres unmarked) [Compound 24] | 6.3 | >100 | –
CC(C)OC(=O)[C@H](C)NP(=O)(OC[C@H]1O[C@@H](n2ccc(NC(=O)C(C)C)nc2=O)[C@](C)(C#N)[C@@H]1OC(=O)C(C)C)Oc1ccccc1 (some centres unmarked) [Compound 12] | 10 | 76 | –
CC(C)OC(=O)[C@H](C)N[P@@](=O)(OC[C@H]1OC(n2ccc(NC(=O)C(C)C)nc2=O)[C@](C)(C#N)[C@@H]1O)Oc1ccccc1 (some centres unmarked) [Compound 10] | 9.5 | 10 | –
